The values that follow come from US7875587B2, “Peptide analogues of GIP for treatment of diabetes, insulin resistance and obesity” (UUTECH Limited, priority 2004, dated 2011).

This experiment has as its system obese diabetic ob/ob mice. As to the kind of experiment: Chronic (11 days, s.c.) (Pro3)GIP administration in obese diabetic ob/ob mice. The experiment is classed as in vivo, mouse. The method, then:
Effects of chronic (Pro^3)GIP administration on plasma glucose, insulin and glycated HbA1c in obese diabetic ob/ob mice and normal mice. Obese diabetic ob/ob mice and normal control mice aged 8-12 weeks were randomly divided into groups which received once daily subcutaneous injections (17:00 h) of either saline (0.9% w/v NaCl) or (Pro^3)GIP (25 nmol/kg body weight in saline). After 11 days, treatment was ceased. Food intake and body weight were recorded daily. Blood samples were collected from the cut tip of the tail of conscious mice into chilled fluoride/heparin coated glucose microcentrifuge tubes (Sarstedt, Numbrecht, Germany). Blood samples were immediately centrifuged using a Beckman microcentrifuge (Beckman Instruments, UK) for 30 seconds at 13000 g prior to glucose, insulin and HbA1c determinations.
Effects of chronic treatment with (Pro^3)GIP on glucose tolerance in ob/ob mice and normal mice. Plasma glucose and insulin concentrations were measured following intraperitoneal administration of glucose (18 mmol/kg body weight) in ob/ob and normal mice treated with either saline (0.9% w/v NaCl) or (Pro^3)GIP (25 nmol/kg body weight/day) for 11 days. This test was repeated 9 days after cessation of chronic (Pro^3)GIP treatment. Blood samples were collected from the cut tip of the tail of conscious mice into chilled fluoride/heparin microcentrifuge tubes (Sarstedt, Numbrecht, Germany) immediately prior to injection and at 15, 30 and 60 minutes post injection. Blood samples were immediately centrifuged using a Beckman microcentrifuge (Beckman Instruments, UK) for 30 seconds at 13000 g and stored at −20° prior to glucose and insulin determinations.
Effects of chronic treatment with (Pro^3)GIP on the glucose lowering effects of exogenous insulin in ob/ob mice. The glucose lowering effects of insulin were evaluated by measuring plasma glucose response in 11-day saline (0.9% w/v NaCl) and (Pro^3)GIP (25 nmol/kg body weight/day) treated ob/ob mice following acute intraperitoneal administration of insulin (50 U/kg bodyweight). Blood samples were collected from the cut tip of the tail of conscious mice into chilled fluoride/heparin microcentrifuge tubes (Sarstedt, Numbrecht, Germany) immediately prior to injection and at 30 and 60 minutes post injection. Blood samples were immediately centrifuged using a Beckman microcentrifuge (Beckman Instruments, UK) for 30 seconds at 13000 g and stored at −20° prior to glucose determination.
Effects of chronic treatment with (Pro^3)GIP on pancreatic insulin content and associated islet hypertrophy in ob/ob mice. Pancreatic tissue was excised from non-fasted ob/ob mice after 11 days treatment with either saline (0.9% w/v NaCl) or (Pro^3)GIP (25 nmol/kg body weight/day). Pancreatic samples were individually wrapped in aluminium foil and snap frozen in liquid nitrogen. Individual excised pancreatic samples were then either embedded, sectioned and immunohistochemically stained for insulin or permeabilised for determination of pancreatic insulin content.
Determination of HbA1c, plasma glucose and insulin concentrations. HbA1c was measured in whole blood by ion-exchange high-performance liquid chromatography using the Menari HA-8140 kit (BIOMEN, Berkshire, UK). Plasma glucose was assayed by an automated glucose oxidase procedure using a Beckman Glucose Analyzer II (Stevens, J. F., 1971, Clinica Chemica Acta 32:199-201) and plasma insulin was determined by RIA (Flatt, P. R. et al., 1981, Diabetologia 20:573-577). Incremental areas under plasma glucose and insulin curves (AUC) were calculated using a computer generated program (CAREA) employing the trapezoidal rule (Burington, R. S., 1973, Handbook of Mathematical Tables and Formulae, New York, McGraw Hill) with baseline subtraction.

Where [1] appears, read: 25 nmol/kg/day s.c., 11 days, vs saline.

No end group written: not given here.

For “YAPGTFISDYSIAMDKIHQQDFVNWLLAQKGKKNDWKHNITQ [(Pro^3)GIP]”, under “25 nmol/kg/day s.c., 11 days”, the HbA1c result is reported as “significant decreases”, the islet hypertrophy entry is recorded as “partial correction” and the pancreatic insulin stores entry is “significant decreases”. Under setting [1], the plasma glucose concentration entry was “decreases” and the plasma insulin concentration entry is “decreases”. The “persistence of beneficial effects after cessation” value (9 days after cessation of treatment) is “reversed 9 days after cessation of treatment”. Further, for the setting “11 days”, the food intake result was “without any change”. The “decrease in body weight” value (11 days, did not achieve significance) is given as ~7%. For the same sequence, the “circulating insulin during glucose tolerance test” value (after 11 days treatment) is recorded as “without change”. Also, the glucose tolerance entry (after 11 days treatment, i.p. glucose 18 mmol/kg) is recorded as “substantially improved”. The insulin sensitivity entry (after 11 days, exogenous insulin 50 U/kg i.p.) is recorded as “significant improvement of insulin sensitivity”.
